By IC50 is commonly meant the point on the concentration scale where inhibition reaches its midpoint.

The source of these data is patent publication US20190359560A1, “ANTI-INFLAMMATORY DRUG AND USES THEREOF” (KYUSHU UNIVERSITY, NATIONAL UNIVERSITY CORPORATION, priority 2015, published 2019).

The subject of one series is Ccl2 mRNA. The series is described as follows: Ccl2 mRNA in Hepa1-6 cells exposed to LPS or TNFα. The settings on record: 10 μM, 12 hours. It is filed as cell-based, mouse. The procedure: Next, whether or not Compound No. 2 whose effect in vivo was confirmed has an effect to antagonize the activation of an inflammatory signal was examined. Hepa1-6 cells were exposed to Compound No. 2 at a dose of 10 μM simultaneously with exposure to lipopolysaccharide (LPS) or TNFα which activates NF-κB for which the G0S2 protein acts as a regulator. As shown in FIGS. 10A and 10B, the cells were recovered 12 hours after the exposure and the expression level of Ccl2 mRNA was measured. […] In addition, 25 μg of LPS was administered to the tail vein of a mouse to thereby construct a hepatitis model. 30 minutes after the administration of LPS, Compound No. 2 (5 mg/kg) was administered to the tail vein of the mouse, and the liver was sampled at 6 hours.

Another series relates to G0S2 mRNA. As to the kind of experiment: G0S2 mRNA in liver of normal mice. The format is in vivo, mouse. The conditions noted are these: normal ICR male mice, 15 mg/kg subcutaneous. Here is the method: An effect of Compound No. 2 with a lower IC50 value on the expression level of G0S2 mRNA in the liver of normal mice was examined. Compound No. 2 was subcutaneously administered on the dorsal region of ICR male mice at a dose of 15 mg/kg. The expression level of G0S2 mRNA in the liver at 30 minutes, 1, 2, 4, 6, 12, and 24 hours after the administration of Compound No. 2 was measured.

The subject of the next series is G0S2 promoter. As to the kind of experiment: G0S2 promoter luciferase activity in O-4000E cell line, IC50. The format is cell-based, mouse. The conditions noted are these: O-4000E cells, 24 hours after exposure. Here is the method: The present inventors have searched for a G0S2 gene transcription inhibitor. In searching, the present inventors have received a compound library consisting of 9600 compounds (Core library) from the Open Innovation Center for Drug Discovery, The University of Tokyo. For this compound library, primary screening was carried out by evaluating an effect of compounds on a luciferase activity using a 384-well plate. The drug efficacy evaluation was studied three times for each compound (final concentration of 10 μM) using a cell line stably expressing an expression cassette in which a luciferase gene was ligated to the downstream side of the G0S2 promoter (−2030→−1378), and compounds which reduced a luciferase activity to less than ¼ were extracted from all studies. As a result, 175 compounds were hit.
For the evaluation of drug efficacy of Compound Nos. 1 and 2, which are hit compounds, an IC50 was calculated. The O-4000E cell line was seeded, and Compound Nos. 1 and 2 were serially diluted in […] so as to have final concentrations of 0.15625 μM to 10 μM, followed by exposure of the cells to the compounds. The luciferase activity was measured 24 hours after the exposure, and the curve fitting was carried out to calculate an IC50 of the compounds.
Detailed drug efficacy evaluation at low concentrations was carried out for the compound of Example 2 (NS-3-011) whose drug efficacy at a concentration of less than 10 μM was observed based on the studies so far and which is expected to have an effect equal to or more than that of Compound No. 2. First, using O-4000E cells, IC50 of Compound No. 2 and the compound of Example 2 (NS-3-011) on the G0S2 promoter activity was calculated.

Series [1] has as its system neuropathic pain model mouse. As to the kind of experiment: Neuropathic pain model constructed by cancer transplantation. The format is in vivo. The settings on record: tumor-bearing mice 2 weeks after cancer transplantation, 15 mg/kg subcutaneous, at 4, 6 and 8 hours. Here is the method: The neuropathic pain model constructed by cancer transplantation activates NF-κB. Therefore, a dose of 15 mg/kg of Compound No. 2 was subcutaneously administered to a model mouse in which the […] was carried out at 2 weeks after cancer transplantation and the pain intensity was measured to confirm that pain was induced.

The nature of series [2]: Blood and liver concentration after oral administration (LC/MS/MS). It is filed as in vivo, mouse. The conditions noted are these: mice, 15 mg/kg oral. The procedure: Compound No. 2 (15 mg/kg) was orally administered to mice. Blood was collected at 0 minutes, 5 minutes, 15 minutes, 30 minutes, 1 hour, 2 hours, 4 hours, 6 hours and 12 hours after the administration of Compound No. 2 and the blood concentration of the compound was measured by LC/MS/MS. In addition, the liver was harvested at 0 minutes, 5 minutes, 15 minutes, 30 minutes, 1 hour and 6 hours after the administration of Compound No. 2, and the liver concentration of the compound was measured by LC/MS/MS.

With `CCCCCCNC(=N)NCc1ccccc1` [Compound No. 2], in the series with Ccl2 mRNA (LPS 100 ng/mL), the “expression of Ccl2 mRNA increased by LPS” value was “significantly inhibited”. Besides, in the series on Ccl2 mRNA (TNFα 200 ng/mL), the “expression of Ccl2 mRNA increased by TNFα” value is “significantly inhibited”. For the same compound, the “expression level of G0S2 mRNA in the liver” value in the series with G0S2 mRNA (2 hours and 12 hours) was “significantly decreased”; in the series on G0S2 mRNA (4 hours after administration) it was “tended to decrease to about half”. Moreover, the IC50 is 2.25 µM in the series on G0S2 promoter (Mus musculus, 24 h) and 2.31 µM with G0S2 promoter. Moreover, the “pain intensity (PWT) over time” value in series [1] is on record as “significantly relieved”. The “time after administration at which concentration in blood was highest” value in series [2] stood at 15 min. For the same compound, the “time after administration at which concentration in liver was highest” value in series [2] worked out at 5 min.
